Reference: patent US5424296A, “2-Halo-2'-deoxyadenosines as therapeutic agents against malignant astrocytoma” (The Scripps Research Institute, priority 1993, dated 1995)
Like-named read-outs stand apart in the source and are kept apart here.

Key:
granulocyte [1] = test: Clinical treatment of multiple sclerosis, granulocyte counts; assay type: in vivo, human; settings: about 0.1 mg/kg/day, seven day courses of continuous infusion, after several courses
malignant astrocytoma = test: Phase I study, tumor response in malignant astrocytoma; assay type: in vivo, human
From the text: (§1) A response to this treatment process can be determined according to the criteria proposed by Macdonald et al., J. Clin. Oncol., 8:1277-1280 (1990). A complete response requires the disappearance of all enhancing tumor on consecutive CAT or MRI scans at least one month apart, off steroids, and that the patient be neurologically stable or improved. A partial response is defined as a greater or equal to 50 percent decrease in size (largest cross-sectional area) of enhancing tumor on consecutive CAT or MRI scans at least one month apart, steroids stable or reduced, and that the patient be neurologically stable or improved. All other tumor responses were designated as no response.
(§2) The patients received continuous infusions of either 0.10, 0.15 or 0.20 mg/kg/day over seven day time periods in up to five monthly cycles. The patients with malignant astrocytomas received either 0.10 or 0.15 mg/kg/day; none receiving 0.20 mg/kg/day.
(§3) The finally diluted solution was infused through central venus access using an infusion pump device (Pharmacia Deltec Cadd) for out-patients, or infused by usual venus infusion for in-patients.
(§4) Each of the patients, except three (one renal cell carcinoma and two malignant melanoma) patients, had received a prior treatment. Each of the patients with malignant astrocytoma had been treated both surgically and with X-rays or by chemotherapy.

malignant melanoma = test: Phase I study, tumor response in malignant melanoma; assay type: in vivo, human; settings: twelve patients
From the text: as §1, §2, §3, §4

renal cell carcinoma = test: Phase I study, tumor response in renal cell carcinoma; assay type: in vivo, human; settings: two patients
From the text: as §1, §2, §3, §4

Phase I study, toxicity = assay type: in vivo, human
Method: as §2, §3

CFU-GM cells = settings: 100 nM 2-CdA; cited from earlier work
CML in blast crisis = settings: cited from earlier work
neutrophils [2] = settings: chronic lymphocytic leukemia, serum levels less than 10 nM, in most cases; cited from earlier work
neutrophils [3] = settings: cutaneous T cell lymphoma, 0.1 mg/kg per day over 7 days; cited from earlier work
granulocyte [4] = settings: hairy cell leukemia, cited from earlier work
[5] = tested on: Erythroid progenitor cells; settings: cultured marrow and blood cells from normal patients; cited from earlier work
[6] = tested on: Primitive burst-forming unit-erythroid (pBFU-E) cells; settings: read-out: IC50 (concentration required to inhibit 50 percent of growth); pBFU-E cells from normal patients; cited from earlier work
[7] = tested on: Mature BFU-E (mBFU-E) cells; settings: read-out: IC50 (concentration required to inhibit 50 percent of growth); mBFU-E cells from normal patients; cited from earlier work
[8] = tested on: colony forming unit-erythroid (CFU-E) cells; settings: read-out: IC50 (concentration required to inhibit 50 percent of growth); CFU-E cells from normal patients; cited from earlier work
[9] = tested on: Colony forming unit-granulocyte macrophage (CFU-GM) cells; settings: read-out: IC50 (concentration required to inhibit 50 percent of growth); CFU-GM cells from normal patients; cited from earlier work

Nc1nc(Cl)nc2c1ncn2[C@H]1C[C@H](O)[C@@H](CO)O1 [2-CdA, 2-chloro-2'-deoxyadenosine]
granulocyte counts (granulocyte [1]): substantially unchanged | duration of partial response (malignant astrocytoma; patient No. 1, grade 2 astrocytoma, four cycles at 0.10 mg/kg/day): seven | coronal MRI of brain after treatment (malignant astrocytoma; patient No. 1, intravenous contrast): resolution of tumor enhancement | axial spin echo MRI of brain after treatment (malignant astrocytoma; patient No. 12): complete regression of the edema and shrinkage of the cyst | cyst on sagittal T1-weighted imaging after treatment (malignant astrocytoma; patient No. 12): smaller in size and higher in signal intensity | sagittal T1-weighted imaging of brain after treatment (malignant astrocytoma; patient No. 12): complete regression of the temporal lobe swelling, with restoration of a normal sulcal pattern | duration of partial response (malignant astrocytoma; patient No. 12, GBM, five cycles at 0.15 mg/kg/day): nine | responding patients (partial response) (malignant astrocytoma; two of seven malignant astrocytoma patients, 0.1 or 0.15 mg/kg/day): 28.6% | median duration of partial response (malignant astrocytoma; two responding patients): eight | patients with partial response (malignant melanoma): None | patients with partial response (renal cell carcinoma): None | myelosuppression per cycles (Phase I study, toxicity; 0.10 mg/kg/day): 1/18 | myelosuppression per cycles (Phase I study, toxicity; 0.15 mg/kg/day): 5/22 | myelosuppression per cycles (Phase I study, toxicity; 0.20 mg/kg/day): 3/4 | myelosuppression, dose dependence (Phase I study, toxicity; 0.10, 0.15, 0.20 mg/kg/day): increased with dosage | principal toxic effect (Phase I study, toxicity; all patients): Myelosuppression | alopecia, nausea, vomiting, cardiopulmonary, renal or hepatic toxicity (Phase I study, toxicity; any patient of the study): No alopecia, nausea, vomiting, cardiopulmonary, renal or hepatic toxicity occurred | myelosuppression in patients with previous biologic therapy (Phase I study, toxicity; in vivo): all of the patients with previous biologic therapy treatment developed myelosuppression | patients with prior chemotherapy among those who developed myelosuppression (Phase I study, toxicity; in vivo): five of eight | patients with prior chemotherapy among those without myelosuppression (Phase I study, toxicity; in vivo): two of thirteen | patients with prior biologic therapies among those exhibiting myelosuppression (Phase I study, toxicity; interferon, interleukin-2, or lymphocyte-activated killer cells): Four of the eight | patients exhibiting myelosuppression (Phase I study, toxicity; malignant astrocytoma (GBM), seven patients): Two of the seven | patients exhibiting delayed neurotoxicities (Phase I study, toxicity; malignant melanoma with prior therapy, unknown whether directly from 2-CdA): Two | type of myelosuppression (Phase I study, toxicity; one astrocytoma patient with prior surgical and X-ray treatments, after the fifth cycle): both neutropenia and thrombocytopenia | myelosuppression (grades 3 or 4 neutropenia or thrombocytopenia), frequency by pretreatment (Phase I study, toxicity; prior exposure to systemic chemotherapy): more frequent in patients having had prior exposure to systemic chemotherapy | reduction of growth of CFU-GM cells (CFU-GM cells): 60% | detectable tumor (CML in blast crisis; another of two patients): loss of detectable tumor | blast count (CML in blast crisis; one of two patients): decrease in blast count | neutrophil count (neutrophils [2]): increase in neutrophil count | resistance of neutrophils relative to monocytes and lymphocytes (neutrophils [3]): more resistant to 2-CdA than their monocytes and lymphocytes | granulocyte counts (granulocyte [4]; transient neutropenia): under 500 per microliter | neutropenia (granulocyte [4]; particularly acute in patients already neutropenic): transient neutropenia | sensitivity of erythroid progenitor cells to 2-CdA [5]: dose-dependent sensitivity to 2-CdA, with that sensitivity decreasing as the stage of progenitor maturation increased | IC50 [6]: 19 nM | IC50 [7]: 38 nM | IC50 [8]: 56 nM | IC50 [9]: 16 nM
